# Reference: PubChem BioAssay AID1963975 (Molecular Pharmacology Branch, DTP, NCI, 2024)
# Tested on: 624824-186-R-J2-PDC multicell spheroids, viability
# Experiment: Anticancer human tumor 624824-186-R-J2-PDC patient-derived colon adenocarcinoma cell line growth inhibition [PI3K]
# Settings: for viability, T/C: stronger effect = lower value
# Source text: Combinatorial screen of targeted agents with the PI3K inhibitors inavolisib, alpelisib, duvelisib, and copanlisib in multi-cell type tumor spheroids
# A high-throughput screen of multi-cell type tumor spheroids was designed to identify active combinations of targeted small molecules and PI3K pathway inhibitors. Complex spheroids include a stromal component modeled by human endothelial cells (HUVEC) and fibroblasts modeled by human mesenchymal stem cells (MSCs). The concentration ranges selected for each drug and investigational agent were based upon clinically achievable concentrations if the clinical Cmax of the agent was known.
# Compounds. The drugs and investigational agents: inavolisib (NSC800729), alpelisib (NSC765974), duvelisib (NSC772469), copanlisib (NSC816437), ipatasertib (NSC767898), afuresertib (NSC778305), talazoparib (NSC767125), sapanisertib (NSC764658), selumetinib (NSC741078), tovorafenib (DAY101, NSC766906), vemurafenib (NSC761431), ravoxertinib (NSC781343), sotorasib (NSC818433), MRTX1133 (NSC 836407), abemaciclib (NSC 768073), palbociclib (NSC758247), venetoclax (NSC 766270), SY5609 (NSC837396), enzalutamide (NSC755605), and darolutamide (NSC825331), were obtained from the National Cancer Institute (NCI) Developmental Therapeutics Program Chemical Repository. The FDA-approved anticancer drug set is available from the NCI Developmental Therapeutics Program. […] The stock solutions were prepared in dimethyl sulfoxide (DMSO, Sigma-Aldrich, St. Louis, MO, cat. D2650) at 800-fold the tested concentration and stored at -70 degrees C prior to their use. All drugs and investigational agents were tested over a range starting from a high concentration at or near the clinical Cmax and decreasing in half-log increments. If the clinical Cmax for an agent had not been determined, the highest concentration tested was 10 microM.
# Cell Culture. All cells were maintained in an incubator at 37 degrees C and 5% CO2 with 95% humidity. The PDC lines were cultured according to standard operating procedures established by the NCI PDMR (https://pdmr.cancer.gov/sops/default.htm). All PDCs were thawed and cultured in Matrigel-coated flasks prepared with a working solution of 1X Ham's F-12 nutrient mix, without supplementation (Invitrogen, Waltham, MA, cat. 11765054), 100 U/mL penicillin-streptomycin (Invitrogen, cat. 15140122), and 2.5% Matrigel (Corning Inc., Corning, NY, cat. 354248) for the first three passages. The 354836-022-R-J1-PDC, 475296-252-R-J1-PDC, and 997726-040-R-J2-PDC lines were cultured in 6A media, which includes advanced DMEM/F-12 (Thermo Fisher Scientific, cat. 12634028), 10 mM HEPES (Thermo Fisher Scientific, cat. 15630080), 1X GlutaMAX supplement (Thermo Fisher Scientific, cat. 35050061), 0.1 mg/mL primocin (InvivoGen, San Diego, CA, cat. ant-pm-2), 10% defined fetal bovine serum, heat inactivated (HyClone Laboratories Inc., Logan, UT, cat. SH30070.03HI), 50% L-WRN conditioned media (ATCC, cat. CRL-3276), 1.25 mM N-Acetyl-L-cysteine (Sigma-Aldrich, cat. A9165), 10 mM nicotinamide (Sigma-Aldrich, cat. N0636), 1X B-27 supplement (Thermo Fisher Scientific, cat. 17504044), 1X N-2 supplement (Thermo Fisher Scientific, cat. 17502048), and 10 microM Y-27632 dihydrochloride (Tocris Bioscience, Bristol, United Kingdom, cat. 1254). The 624824-186-R-J2-PDC line was cultured in 6C/Colon 1B media, which includes all 6A media components plus 50 ng/mL human EGF recombinant protein (Thermo Fisher Scientific, cat. PHG0311). […]
# [1] = curve of first compound, second compound 0.0316 µM
# [2] = curve of first compound, second compound 0.1 µM
# [3] = curve of first compound, second compound 0.316 µM
# [4] = curve of first compound, second compound 1 µM
# [5] = curve of first compound, second compound 3.16 µM
# [6] = curve of first compound, second compound 10 µM
# [7] = second compound 0.0316 µM, first compound 0.0316 µM
# [8] = second compound 0.0316 µM, first compound 0.1 µM
# [9] = second compound 0.0316 µM, first compound 0.316 µM
# [10] = second compound 0.0316 µM, first compound 1 µM
# [11] = second compound 0.0316 µM, first compound 3.16 µM
# [12] = second compound 0.0316 µM, first compound 10 µM
# [13] = second compound 0.1 µM, first compound 0.0316 µM
# [14] = second compound 0.1 µM, first compound 0.1 µM
# [15] = second compound 0.1 µM, first compound 0.316 µM
# [16] = second compound 0.1 µM, first compound 1 µM
# [17] = second compound 0.1 µM, first compound 3.16 µM
# [18] = second compound 0.1 µM, first compound 10 µM
# [19] = second compound 0.316 µM, first compound 0.0316 µM
# [20] = second compound 0.316 µM, first compound 0.1 µM
# [21] = second compound 0.316 µM, first compound 0.316 µM
# [22] = second compound 0.316 µM, first compound 1 µM
# [23] = second compound 0.316 µM, first compound 3.16 µM
# [24] = second compound 0.316 µM, first compound 10 µM
# [25] = second compound 1 µM, first compound 0.0316 µM
# [26] = second compound 1 µM, first compound 0.1 µM
# [27] = second compound 1 µM, first compound 0.316 µM
# [28] = second compound 1 µM, first compound 1 µM
# [29] = second compound 1 µM, first compound 3.16 µM
# [30] = second compound 1 µM, first compound 10 µM
# [31] = second compound 3.16 µM, first compound 0.0316 µM
# [32] = second compound 3.16 µM, first compound 0.1 µM
# [33] = second compound 3.16 µM, first compound 0.316 µM
# [34] = second compound 3.16 µM, first compound 1 µM
# [35] = second compound 3.16 µM, first compound 3.16 µM
# [36] = second compound 3.16 µM, first compound 10 µM
# [37] = second compound 10 µM, first compound 0.0316 µM
# [38] = second compound 10 µM, first compound 0.1 µM
# [39] = second compound 10 µM, first compound 0.316 µM
# [40] = second compound 10 µM, first compound 1 µM
# [41] = second compound 10 µM, first compound 3.16 µM
# [42] = second compound 10 µM, first compound 10 µM
# 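Further: spheroids exposed to agents for 7 days before viability read.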
# 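Wherever viability, T/C is given: 100% = DMSO vehicle treated spheroids.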
smiles,measurement,setting,value
CCCS(=O)(=O)Nc1ccc(F)c(C(=O)c2c[nH]c3ncc(-c4ccc(Cl)cc4)cc23)c1F + Cc1nc(NC(=O)N2CCCC2C(N)=O)sc1-c1ccnc(C(C)(C)C(F)(F)F)c1,IC50,[1],> 10 µM
same,IC50,[2],7.11 µM
same,IC50,[3],6.6 µM
same,IC50,[4],5.13 µM
same,IC50,[5],1.04 µM
same,IC50,[6],0.455 µM
same,"viability, T/C",[7],68%
same,"viability, T/C",[8],77.2%
same,"viability, T/C",[9],61.6%
same,"viability, T/C",[10],76.8%
same,"viability, T/C",[11],87.3%
same,"viability, T/C",[12],42.2%
same,"viability, T/C",[13],84%
same,"viability, T/C",[14],64.8%
same,"viability, T/C",[15],61.2%
same,"viability, T/C",[16],91.9%
same,"viability, T/C",[17],96.5%
same,"viability, T/C",[18],37.7%
same,"viability, T/C",[19],72.3%
same,"viability, T/C",[20],72.7%
same,"viability, T/C",[21],53.8%
same,"viability, T/C",[22],73.1%
same,"viability, T/C",[23],78.1%
same,"viability, T/C",[24],38.9%
same,"viability, T/C",[25],74.6%
same,"viability, T/C",[26],50.7%
same,"viability, T/C",[27],54.4%
same,"viability, T/C",[28],65.6%
same,"viability, T/C",[29],75.9%
same,"viability, T/C",[30],30.4%
same,"viability, T/C",[31],79.6%
same,"viability, T/C",[32],60.6%
same,"viability, T/C",[33],56.4%
same,"viability, T/C",[34],51.7%
same,"viability, T/C",[35],52%
same,"viability, T/C",[36],23.2%
same,"viability, T/C",[37],58.7%
same,"viability, T/C",[38],50%
same,"viability, T/C",[39],49.9%
same,"viability, T/C",[40],45.1%
same,"viability, T/C",[41],41.1%
same,"viability, T/C",[42],19%
CC1(C)CCC(Nc2ncc(C(F)(F)F)c(-c3c[nH]c4c(P(C)(C)=O)c(C#N)ccc34)n2)CN1 (stereo not drawn) + CC(Nc1ncnc2nc[nH]c12)c1cc2cccc(Cl)c2c(=O)n1-c1ccccc1,IC50,[1],3.55 µM
same,IC50,[2],4.27 µM
same,IC50,[3],3.13 µM
same,IC50,[4],3.73 µM
same,IC50,[5],2.99 µM
same,IC50,[6],2.97 µM
same,"viability, T/C",[7],81.1%
same,"viability, T/C",[8],93.2%
same,"viability, T/C",[9],102%
same,"viability, T/C",[10],108%
same,"viability, T/C",[11],54.9%
same,"viability, T/C",[12],6.48%
same,"viability, T/C",[13],94.1%
same,"viability, T/C",[14],92.3%
same,"viability, T/C",[15],96.3%
same,"viability, T/C",[16],104%
same,"viability, T/C",[17],65.7%
same,"viability, T/C",[18],6.11%
same,"viability, T/C",[19],91%
same,"viability, T/C",[20],76.4%
same,"viability, T/C",[21],90.8%
same,"viability, T/C",[22],108%
same,"viability, T/C",[23],49.7%
same,"viability, T/C",[24],5.05%
same,"viability, T/C",[25],108%
same,"viability, T/C",[26],94.1%
same,"viability, T/C",[27],100%
same,"viability, T/C",[28],98.7%
same,"viability, T/C",[29],57.6%
same,"viability, T/C",[30],4.82%
same,"viability, T/C",[31],91.2%
same,"viability, T/C",[32],94.7%
same,"viability, T/C",[33],100%
same,"viability, T/C",[34],93.3%
same,"viability, T/C",[35],47.8%
same,"viability, T/C",[36],4.88%
same,"viability, T/C",[37],100%
same,"viability, T/C",[38],84.4%
same,"viability, T/C",[39],92.3%
same,"viability, T/C",[40],81.3%
same,"viability, T/C",[41],48.1%
same,"viability, T/C",[42],3.89%
CNC(=O)c1ccc(N2C(=S)N(c3ccc(C#N)c(C(F)(F)F)c3)C(=O)C2(C)C)cc1F,IC50,curve of compound,> 10 µM
Cn1ncc(Cl)c1-c1cc(C(=O)NC(CN)Cc2cccc(F)c2)sc1Cl (stereo not drawn),"viability, T/C",compound 0.1 µM,79.8% [middle of 4 runs]
same,"viability, T/C",compound 0.316 µM,74.5% [middle of 4 runs]
same,"viability, T/C",compound 1 µM,89.4% [middle of 4 runs]
same,"viability, T/C",compound 3.16 µM,68.2% [middle of 4 runs]
same,"viability, T/C",compound 10 µM,59.2% [middle of 4 runs]
same,IC50,curve of compound,> 10 µM
C#Cc1c(F)ccc2cc(O)cc(-c3ncc4c(N5CC6CCC(C5)N6)nc(OCC56CCCN5CC(F)C6)nc4c3F)c12 (stereo not drawn) + CC(Nc1ccc2c(c1)OCCn1cc(N3C(=O)OCC3C(F)F)nc1-2)C(N)=O,IC50,"curve of first compound, second compound 0.00316 µM",> 10 µM
same,IC50,"curve of first compound, second compound 0.01 µM",> 10 µM
same,IC50,[1],> 10 µM
same,IC50,[2],> 10 µM
same,IC50,[3],> 10 µM
same,IC50,[4],> 10 µM
same,"viability, T/C","second compound 0.00316 µM, first compound 0.0316 µM",90%
same,"viability, T/C","second compound 0.00316 µM, first compound 0.1 µM",98.3%
same,"viability, T/C","second compound 0.00316 µM, first compound 0.316 µM",123%
same,"viability, T/C","second compound 0.00316 µM, first compound 1 µM",87.4%
same,"viability, T/C","second compound 0.00316 µM, first compound 3.16 µM",105%
same,"viability, T/C","second compound 0.00316 µM, first compound 10 µM",106%
same,"viability, T/C","second compound 0.01 µM, first compound 0.0316 µM",116%
same,"viability, T/C","second compound 0.01 µM, first compound 0.1 µM",103%
same,"viability, T/C","second compound 0.01 µM, first compound 0.316 µM",82.6%
same,"viability, T/C","second compound 0.01 µM, first compound 1 µM",89%
same,"viability, T/C","second compound 0.01 µM, first compound 3.16 µM",94.9%
same,"viability, T/C","second compound 0.01 µM, first compound 10 µM",86.5%
same,"viability, T/C",[7],91.6%
same,"viability, T/C",[8],116%
same,"viability, T/C",[9],79.2%
same,"viability, T/C",[10],102%
same,"viability, T/C",[11],106%
same,"viability, T/C",[12],82.2%
same,"viability, T/C",[13],121%
same,"viability, T/C",[14],88.1%
same,"viability, T/C",[15],80.6%
same,"viability, T/C",[16],82.5%
same,"viability, T/C",[17],93.3%
same,"viability, T/C",[18],100%
same,"viability, T/C",[19],101%
same,"viability, T/C",[20],76.2%
same,"viability, T/C",[21],79%
same,"viability, T/C",[22],85.1%
same,"viability, T/C",[23],86.8%
same,"viability, T/C",[24],81.8%
same,"viability, T/C",[25],78.1%
same,"viability, T/C",[26],80.3%
same,"viability, T/C",[27],82%
same,"viability, T/C",[28],94.4%
same,"viability, T/C",[29],93.2%
same,"viability, T/C",[30],91.1%
